The supplement of paper PMC5908809

Key:
[1] = tested on: normal NK cells expanded with K562-aAPC; experiment: percent inhibition of viability; higher = more inhibition; settings: 72 h, IL-2 2.5 ng/mL
Experimental: (§1)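 Drug sensitivity and resistance testing on K562-aAPC-expanded normal NK cells: 5 concentrations (10-fold steps over a 10,000-fold range), 72 h at 37 °C, viability by CellTiter-Glo normalised to DMSO and benzethonium chloride controls; DSS from the fitted curve.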

[2] = tested on: DERL-7 (IL-2 2.5 ng/mL); experiment: as above; settings: 72 h
[3] = tested on: IMC-1 (IL-2 20 ng/mL); experiment: as above; settings: 72 h
[4] = tested on: KAI3 (IL-2 2.5 ng/mL); experiment: as above; settings: 72 h
[5] = tested on: KHYG-1 (IL-2 2.5 ng/mL); experiment: as above; settings: 72 h
[6] = tested on: NK-92 (IL-2 2.5 ng/mL); experiment: as above; settings: 72 h
[7] = tested on: NK-YS (IL-2 2.5 ng/mL); experiment: as above; settings: 72 h
[8] = tested on: NKL (IL-2 2.5 ng/mL); experiment: as above; settings: 72 h
[9] = tested on: SNK-6 (IL-2 2.5 ng/mL); experiment: as above; settings: 72 h
[10] = tested on: YT (IL-2 2.5 ng/mL); experiment: as above; settings: 72 h
[11] = tested on: normal primary NK cells, pool 1 (3 donors) (IL-2 2.5 ng/mL); experiment: as above; settings: 72 h
[12] = tested on: normal primary NK cells, pool 1 (3 donors), resting (IL-2 0 ng/mL); experiment: as above; settings: 72 h
[13] = tested on: normal primary NK cells, pool 2 (3 donors) (IL-2 2.5 ng/mL); experiment: as above; settings: 72 h
[14] = tested on: normal primary NK cells, pool 3 (3 donors) (IL-2 2.5 ng/mL); experiment: as above; settings: 72 h
[15] = tested on: normal NK cells expanded with K562-aAPC; experiment: drug sensitivity score (DSS) (DSS units); higher = more sensitive; extreme values may be limits of the assay; settings: 72 h; IL-2 2.5 ng/mL
Experimental: as §1

[16] = tested on: DERL-7 (IL-2 2.5 ng/mL); experiment: as above; settings: 72 h
[17] = tested on: IMC-1 (IL-2 20 ng/mL); experiment: as above; settings: 72 h
[18] = tested on: KAI3 (IL-2 2.5 ng/mL); experiment: as above; settings: 72 h
[19] = tested on: KHYG-1 (IL-2 2.5 ng/mL); experiment: as above; settings: 72 h
[20] = tested on: NK-92 (IL-2 2.5 ng/mL); experiment: as above; settings: 72 h
[21] = tested on: NK-YS (IL-2 2.5 ng/mL); experiment: as above; settings: 72 h
[22] = tested on: NKL (IL-2 2.5 ng/mL); experiment: as above; settings: 72 h
[23] = tested on: SNK-6 (IL-2 2.5 ng/mL); experiment: as above; settings: 72 h
[24] = tested on: YT (IL-2 2.5 ng/mL); experiment: as above; settings: 72 h
[25] = tested on: normal primary NK cells, pool 1 (3 donors) (IL-2 2.5 ng/mL); experiment: as above; settings: 72 h
[26] = tested on: normal primary NK cells, pool 1 (3 donors), resting (IL-2 0 ng/mL); experiment: as above; settings: 72 h
[27] = tested on: normal primary NK cells, pool 2 (3 donors) (IL-2 2.5 ng/mL); experiment: as above; settings: 72 h
[28] = tested on: normal primary NK cells, pool 3 (3 donors) (IL-2 2.5 ng/mL); experiment: as above; settings: 72 h

CN1CCN(c2nc(C3=C(c4c[nH]c5ccccc45)C(=O)NC3=O)c3ccccc3n2)CC1 [Sotrastaurin] (max concentration tested 10000 nM)
percent inhibition of viability [%]
Settings	1 nM	10 nM	100 nM	1000 nM	10000 nM
[1]	-1.03	-1.43	5.74	19.1	54.6
[2]	-4.78	-0.35	2.08	40.8	89
[3]	-5.62	-0.79	-3.9	0.37	14.4
[4]	1.68	5.93	0.83	15.7	68.5
[5]	-1.7	2.28	1.66	16.2	86.7
[6]	-7.26	-8.85	-22.3	14.4	67.9
[7]	-6.15	-1.7	5.97	11.9	48.6
[8]	-0.06	2.68	21.7	45.5	80
[9]	-17.8	-16.5	-5.18	-2.38	44.5
[10]	-2.44	0.13	0.38	16.3	34.6
[11]	-5.39	7.06	18.6	27.9	44.3
[12]	-32.7	2.96	-3.23	9.18	-53.6
[13]	-13.5	-3.77	5.41	15.2	41.4
[14]	-3.26	-0.15	8.22	5.07	38.6

Settings	drug sensitivity score
[15]	5.13
[16]	9.93
[17]	0.22
[18]	6.26
[19]	7.45
[20]	6.04
[21]	4.32
[22]	11.4
[23]	2.08
[24]	3.65
[25]	7.19
[26]	0
[27]	3.66
[28]	2.75

CC(C)n1cnc2c(NCCc3ccc(O)cc3)nc(-c3csc4ccccc34)nc21 [StemRegenin 1] (max concentration tested 10000 nM)
percent inhibition of viability [%]
Settings	1 nM	10 nM	100 nM	1000 nM	10000 nM
[1]	-5.56	-5.75	-5.39	-7.57	0.59
[2]	2.23	15.4	50.9	71.1	96.4
[3]	-6.67	-2.1	-7.77	-8.29	0.67
[4]	-8.14	3.68	6.57	-0.19	76.8
[5]	-5.41	-0.83	0.98	8.59	98.9
[6]	-11	-16.6	1.48	39.2	97.7
[7]	-3.67	-6.84	-5.59	1.14	24.9
[8]	-9.52	0.88	5.6	18.4	80.4
[9]	-6.98	28.7	-5.97	-12.5	71.9
[10]	-5.32	-2.81	0.29	5.57	71.9
[11]	-8.25	-4.37	-0.27	7.52	45
[12]	-11.7	-11.1	15.2	12.3	74.7
[13]	-1.53	-2.41	-0.22	-2.53	54.6
[14]	-3.75	-2.11	-2.9	-0.23	36

Settings	drug sensitivity score
[15]	0
[16]	21.1
[17]	0
[18]	4.25
[19]	6.85
[20]	10.6
[21]	1.09
[22]	7.36
[23]	3.24
[24]	4.83
[25]	3.58
[26]	6.2
[27]	2.7
[28]	1.7

CN(N=O)C(=O)N[C@@H](C=O)[C@@H](O)[C@H](O)[C@H](O)CO [Streptozocin] (max concentration tested 10000 nM)
percent inhibition of viability [%]
Settings	1 nM	10 nM	100 nM	1000 nM	10000 nM
[1]	-0.04	4.41	2.61	7.51	13.9
[2]	-4.65	-4.39	-0.36	-4.36	-9.4
[3]	-3	-1.77	1.49	5.01	21.2
[4]	-8.8	-7.24	-7.83	-15.1	-3.23
[5]	-0.99	-4.93	2.57	-0.52	4.73
[6]	-10.2	-0.49	-2.54	-2.99	-3.48
[7]	-3.08	-5.94	5.25	-5.62	10.8
[8]	-22.4	-14.9	-15.8	-16.6	-9.59
[9]	4.98	18.1	36.6	23.4	36.7
[10]	-1.12	-3.14	1.58	-0.51	9.38
[11]	-0.38	-7.4	-2.69	-9.47	-1.13
[12]	-9.25	-22.8	-15.8	-38.7	-21.4
[13]	-14.4	-2.41	1.68	-6.8	-12.2
[14]	-12.8	-5.88	-5.23	-3.37	-3

Settings	drug sensitivity score
[15]	0.16
[16]	0
[17]	1.35
[18]	0
[19]	0
[20]	0
[21]	0
[22]	0
[23]	12.4
[24]	0
[25]	0
[26]	0
[27]	0
[28]	0

CCN(CC)CCNC(=O)c1c(C)[nH]c(/C=C2\C(=O)Nc3ccc(F)cc32)c1C [Sunitinib] (max concentration tested 1000 nM)
percent inhibition of viability [%]
Settings	0.1 nM	1 nM	10 nM	100 nM	1000 nM
[1]	-1.15	-8.6	-7.99	-3.78	8.28
[2]	-3.26	-7.9	-4.27	2.22	8.72
[3]	-2.84	-1.04	-2.36	-9.74	-11.7
[4]	-6.44	-3.5	-1.64	-2.65	13.1
[5]	-2.13	-0.89	-1.78	-2.5	-1.47
[6]	-1.8	-5.15	-7.66	-13.8	-16.3
[7]	-7.84	-1.57	-0.53	-5.09	20
[8]	-10.3	-18.8	-13.7	-21.1	-19
[9]	5.7	4.75	3.71	-18.1	-44.5
[10]	-1.95	0.38	0.07	-2.92	-1.42
[11]	-9.12	-5.49	0.84	2.57	11.7
[12]	-1.26	-12.4	6.63	10.2	8.42
[13]	-6.76	-0.63	-6.25	-4.61	11.7
[14]	-5.22	-2.41	-6.25	-3.39	0.3

Settings	drug sensitivity score
[15]	0
[16]	0
[17]	0
[18]	0.06
[19]	0
[20]	0
[21]	0.4
[22]	0
[23]	0
[24]	0
[25]	0.13
[26]	0.08
[27]	0
[28]	0

Cn1ncnc1[C@H]1c2n[nH]c(=O)c3cc(F)cc(c23)N[C@@H]1c1ccc(F)cc1 [Talazoparib] (max concentration tested 1000 nM)
percent inhibition of viability [%]
Settings	0.1 nM	1 nM	10 nM	100 nM	1000 nM
[1]	2.07	3.56	9.75	17.4	45.1
[2]	4.61	7.22	13.7	21.3	37.8
[3]	-4.58	-1.47	11.2	18.6	78.1
[4]	3.2	10.3	25.1	48.3	74.7
[5]	0.2	-0.57	14.9	31.4	71.2
[6]	15.4	8.78	27.8	36.7	87.8
[7]	-2.27	-0.36	27.9	81.3	96.2
[8]	-2.21	28.1	72	84.1	88.6
[9]	1.83	6.37	16.4	33.1	90.8
[10]	-2.25	0.5	0.86	-5.82	-1.36
[11]	7.55	-5.65	4.49	-2.17	-1.39
[12]	10.7	-5.43	-1.52	-18.5	4.03
[13]	-10.4	6.14	1.12	1.32	21.5
[14]	-7.78	-0.35	2.46	5.72	21.3

Settings	drug sensitivity score
[15]	4.21
[16]	5.22
[17]	7.06
[18]	12.7
[19]	7.93
[20]	12
[21]	18.4
[22]	27.7
[23]	8.8
[24]	0
[25]	0
[26]	0
[27]	0.86
[28]	1.31
